According to patent EP2832347B1, “Method for identifying patchouli odorant materials” (Takasago International Corporation, priority 2013, dated 2015):
Where “and” joins values, the source holds several entries; their conditions need not be identical. Equal entries are not always repeated.

Assay: Long-lasting analysis on scent strip (GC-MS with internal standard)
Type: physicochemical
Conditions: for PA (GC-MS signal), sample 1-3 / Ratio PA/IS, sample 1-3: individual scent strips, listed as PA
Experimental: In one embodiment, the long-lasting analysis is carried out as follows: 50 µl of a 1 % solution of the identified candidate to be tested in alcohol, preferably ethanol, are applied on a scent strip, preferably a cellulosic scent strip, to be dosed. The strip is allowed to dry under ambient laboratory conditions, with normal room air movement, in particular no fan, heating or any mean or device to accelerate evaporation. After different times, each strip or at least the part of the scent strip including the area where the solution of the identified candidate to be tested was applied is extracted using 3 ml of alcohol, preferably ethanol, containing an internal standard, such as methyl decanoate. The extracts are then analyzed by gas chromatography and the result is normalized for the principal molecular ion of the identified candidate using the value for the internal standard.
50 µl of a 1 % solution of patchouli alcohol in ethanol was added by pipette to the tip to a series of different scent strips (SARL H. GRANGER-VEYRON, Privas, France). The strips were allowed to dry under ambient laboratory conditions.
After different times (t0, t0+1hour, t0+2hours, t0+4hours, t0+8hours) the tip of a strip where the 50 µl of the solution of the tested material had been applied was cut and put in a 30 ml bottle and extracted using 3 ml of ethanol, containing 50 µl of methyl decanoate as internal standard (10000 ppm solution in cyclohexane), added to each bottle. Care was taken to ensure the entire area around the point of application was included in the area that was cut and extracted. The content of the bottles was mixed for 30 min on a roller bed, and 2 ml vials were then filled with each sample.
Samples were triplicated, i.e. 3 scent strip tips were analysed for each time point.
In a first series of experiments, samples taken at t0, t0+1hour and t0+2hours were analyzed by GC-MS on a […] gas chromatography column (column BC-WAX (50m * 0.25mm * 0.15µm) which is a GC Sciences column supplied by Interchim, Montluçon, France).
In a second series of experiments, samples taken at t0, t0+4hours and t0+8hours were analyzed by GC-MS on a non-polar gas chromatography column (HP-5MS UI (30m * 0.25mm * 0.25µm) which is an Agilent column supplied by Chromoptic, Courtaboeuf, France).
In Tables 6-11, PA stands for patchouli alcohol and IS stands for the internal standard, i.e. methyl decanoate. When plotting the residual concentration of patchouli on the scent strip as a function of time, the mean ratio at t0 was normalized to 100 and then t0+1h, t0+2h, t0+4h and t0+8h were calculated; t0 being defined as 2 minutes after dosing the 50 µl of the solution of the tested material, which was applied towards the tip of the scent strip.
A "long-lasting" analysis of pogostone was performed as described in Example 5 with samples taken at t0, t0+1hour and t0+2hours.
In Tables 12-14 herebelow, POG stands for pogostone and IS stands for the internal standard, i.e. methyl decanoate. The mean ratio at t0 was normalized as described in Example 5.

[1] = t0, second series, HP-5MS UI column

For C[C@H]1CC[C@@]2(O)C(C)(C)[C@@H]3CC[C@@]2(C)[C@H]1C3 [Patchouli alcohol], the retained initial concentration (after 1 hour on scent strip) was “at least 10%”, the “PA (GC-MS signal), mean value” (t0+1h, BC-WAX column) was 2.09E+06 and the “Ratio PA/IS, mean value” (t0+1h, BC-WAX column) was 6.70E-01. The “PA (GC-MS signal), sample 1-3” value (t0+1h, BC-WAX column) was 2.10E+06 and 2.12E+06 and 2.05E+06, the “Ratio PA/IS, sample 1-3” value (t0+1h, BC-WAX column) was 6.50E-01 and 7.16E-01 and 6.43E-01 and the “PA (GC-MS signal), mean value” (t0+2h, BC-WAX column) was 1.35E+06. For the same compound, the “Ratio PA/IS, mean value” (t0+2h, BC-WAX column) was 4.29E-01, the “PA (GC-MS signal), sample 1-3” value (t0+2h, BC-WAX column) was 1.38E+06 and 1.32E+06 and 1.35E+06 and the “Ratio PA/IS, sample 1-3” value (t0+2h, BC-WAX column) was 3.74E-01 and 4.52E-01 and 4.62E-01. The “PA (GC-MS signal), mean value” (t0+4h, HP-5MS UI column) was 3.26E+06, the “Ratio PA/IS, mean value” (t0+4h, HP-5MS UI column) was 4.15E-01 and the “PA (GC-MS signal), sample 1-3” value (t0+4h, HP-5MS UI column) was 3.83E+06 and 2.94E+06 and 3.00E+06. The “Ratio PA/IS, sample 1-3” value (t0+4h, HP-5MS UI column) was 4.67E-01 and 3.89E-01 (2×), the “PA (GC-MS signal), mean value” (t0+8h, HP-5MS UI column) was 1.58E+06 and the “Ratio PA/IS, mean value” (t0+8h, HP-5MS UI column) was 1.86E-01. For the same compound, the “PA (GC-MS signal), sample 1-3” value (t0+8h, HP-5MS UI column) was 2.02E+06 and 1.37E+06 and 1.35E+06, the “Ratio PA/IS, sample 1-3” value (t0+8h, HP-5MS UI column) was 2.16E-01 and 1.77E-01 and 1.65E-01 and the “PA (GC-MS signal), mean value” (t0, BC-WAX column) was 2.93E+06. For the same compound, the “Ratio PA/IS, mean value” (t0, BC-WAX column) was 9.67E-01, the “PA (GC-MS signal), sample 1-3” value (t0, BC-WAX column) was 2.98E+06 and 2.87E+06 and 2.94E+06 and the “Ratio PA/IS, sample 1-3” value (t0, BC-WAX column) was 9.42E-01 and 9.89E-01 and 9.69E-01. The “PA (GC-MS signal), mean value” [1] was 9.18E+06, the “Ratio PA/IS, mean value” [1] was 1.24E+00 and the “PA (GC-MS signal), sample 1-3” value [1] was 9.37E+06 and 9.23E+06 and 8.94E+06. The “Ratio PA/IS, sample 1-3” value [1] was 1.25E+00 and 1.22E+00 and 1.26E+00.
